Data published in patent publication US20230250054A1, “SELECTIVE HISTONE DEACETYLASE 6 INHIBITORS” (The Board of Trustees of the University of Illinois, priority 2020, published 2023).

Experiments:
HDAC1 = target: T1, HDAC1 (Homo sapiens, UniProt Q13547); assay: Fluorescence-based HDAC inhibition assay, HDAC1; assay type: biochemical
T1 construct: made in house; host or cells: HEK293/T17 cells, transient transfection
Method: Briefly, transiently transfected cells were harvested three days post-transfection and the cell pellets resuspended in a lysis buffer (50 mM Tris, 150 mM NaCl, 10 mM KCl, 2 mM MgCl2, 10% glycerol, 0.2% NP-40, 2 Units/mL benzonase, pH 8) supplemented with a cocktail of protease inhibitors (Roche, Basel, Switzerland). Cells were lysed by sonication (30 W; 3×20 s) on ice, and the cell lysate cleared by centrifugation at 40 000×g for 30 min at 4° C. […] Purified proteins were concentrated to 1 mg/mL, aliquoted, flash-frozen in liquid nitrogen, and stored at −80° C. until further use.
Briefly, individual HDACs were preincubated with dilution series of tested inhibitors (0-100 μM) in a 384-well plate in the total volume of 40 μL for 10 min at 37° C. in a reaction buffer comprising 50 mM HEPES, 140 mM NaCl, 10 mM KCl, 1 mM TCEP, 0.1% BSA, pH 7.4. Deacetylation reaction was started by the addition of 10 μL of a 10 μM substrate into the HDAC/inhibitor mixture. Following the 30 min incubation at 37° C., the reaction was terminated by the addition of 25 μL of the trypsin solution (4 mg/mL). Fluorescence development by trypsin was carried out at 37° C. for 15 and 60 min for Ac-GAK(Ac)-AMC and Boc-Lys(TFA)-AMC substrate, respectively. […] Non-linear regression analysis was employed to calculate IC50 values using the GraphPad Prism software. […] Reactions without the enzyme or the inhibitor were used to define 0% and 100% of the HDAC activity, respectively.

Ac—H3 = assay: Immunoblot of Ac-H3 in WM164 melanoma cells; assay type: cell-based, human; details: 0.1 to 10 μM, overnight
Method: The SM1 murine melanoma cells were obtained from Dr. A. Ribas at the University of California, Los Angeles. WM164 human melanoma cells were obtained from ATCC. The cells were cultured in an incubator in RPMI 1640, 1% penicillin-streptomycin, and 10% fetal bovine serum at 37° C. with 5% CO2. […] For STAT3 phosphorylation assays, cells were pre-treated with or without HDAC6i (5 μM) for overnight followed by treatment with recombinant human IL-6 (Biolegend) for 20 min. PBS was added as a control. RAW 264.7 macrophages were purchased from ATCC and cultured in DMEM medium supplemented with 10% FBS, 1% non-essential amino acids, and 2-mercaptoethanol (50 μM). […] Cytotoxicity assay was performed using CellTox Green (Promega, Cat #G8731) following the manufacturer's instructions, and fluorescence readings were obtained on Spectramax i3 (Molecular Devices) multimode plate reader at wavelengths EX 485 nm and EM 520 nm. […]
The cells were harvested and lysed with RIPA buffer (ThermoScientific, 89900) containing protease and phosphatase inhibitors (ThermoScientific, 78440) by sonication in Bioruptor (Diagenode) for 8 cycles of 30 seconds ON and 30 seconds OFF on high setting. To assess the expression of proteins, total protein samples were heat-denatured in SDS sample loading buffer, and 15-20 μg of protein was analysed on 4-20% SDS-PAGE gels (Bio-Rad, 456-1093). […]

immune cells = assay: Immune cell phenotyping by flow cytometry in the SM1 melanoma model; assay type: in vivo, C57BL/6 mice
Method: To understand the immunomodulatory properties of Suprastat, a comprehensive immune cell phenotyping by flow cytometry was performed. […] (see, e.g., Knox et al., Sci. Rep. 9: 6136 (2019)). […] A significant change in immunosuppressive T-regs (FIG. 6F) was not observed. […] (see, e.g., Knox et al., Sci. Rep. 9: 6136 (2019)).

physchem = details: PBS
in vitro = details: rat, liver microsomes
[1] = 10 μM Ac-GAK(Ac)-AMC substrate, mean of two experiments ± SEM

T1 sequence (Q13547 whole entry): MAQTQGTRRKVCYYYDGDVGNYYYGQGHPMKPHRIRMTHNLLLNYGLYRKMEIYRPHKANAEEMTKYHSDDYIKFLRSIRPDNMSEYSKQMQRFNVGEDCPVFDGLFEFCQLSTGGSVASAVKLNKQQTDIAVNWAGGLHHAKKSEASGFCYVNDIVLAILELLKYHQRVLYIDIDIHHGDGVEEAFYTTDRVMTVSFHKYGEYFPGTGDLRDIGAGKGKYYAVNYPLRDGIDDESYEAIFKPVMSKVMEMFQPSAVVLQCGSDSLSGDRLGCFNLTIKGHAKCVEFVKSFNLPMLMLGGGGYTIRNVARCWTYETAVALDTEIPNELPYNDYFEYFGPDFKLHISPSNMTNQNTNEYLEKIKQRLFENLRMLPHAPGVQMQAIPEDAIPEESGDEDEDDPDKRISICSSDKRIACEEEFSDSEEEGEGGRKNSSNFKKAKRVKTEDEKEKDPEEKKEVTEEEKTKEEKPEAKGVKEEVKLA

| SMILES | SI (HDAC6 selectivity index over HDAC1) (HDAC1) | IC50 (HDAC1; [1]) [nM] | IC50 (HDAC1; Table 2) [nM] | HDAC1/6 (HDAC1; ratio HDAC1 IC50 / HDAC6 IC50, Table 2) | levels of acetylated histone H3 (Ac—H3) (Ac—H3) | F4/80+CD206+ pro-tumor M2 macrophages (immune cells; flow cytometry) | natural killer (NK) cells (immune cells; flow cytometry) | percentage of CD8+ central memory (CM) cells (immune cells; flow cytometry) | M1/M2 ratio (immune cells; relative to control and anti-PD1 groups) | half-life (physchem) [min] | half-life (in vitro) [min] |
| --- | --- | --- | --- | --- | --- | --- | --- | --- | --- | --- | --- |
| NCc1ccc(NC(=O)N(CCCCO)Cc2ccc(C(=O)NO)cc2)cc1 [Compound 6a, 4-((3-(4-(Aminomethyl)phenyl)-1-(4-hydroxybutyl)ureido)methyl)-N-hydroxybenz-amide] | 293 | 117 ± 10 | 117 ± 10 | 293 | slight increase in the levels of Ac—H3 | significantly decreased | positive trend | increase in the percentage of CD8+ central memory (CM) cells | significantly higher M1/M2 ratio | > 1440 | 173 |
| CCCCN(Cc1ccc(C(=O)NO)cc1)C(=O)Nc1ccc(CN)cc1 [Compound 6b, 4-((3-(4-(Aminomethyl)phenyl)-1-butylureido)methyl)-N-hydroxybenzamide] | 89 | 80 ± 45 | – | – | – | – | – | – | – | – | – |
| O=C(NO)c1ccc(CN(CCCCO)C(=O)Nc2ccccc2)cc1 [Compound 6c, reference compound] | 296 | 148 ± 9 | – | – | – | – | – | – | – | – | – |
